MIC data for 14 compounds are collected here from DBAASP.

Some test systems named below: Shigella dysenteriae; Pseudomonas aeruginosa; Bacillus cereus; Escherichia coli B; Staphylococcus aureus; Bacillus subtilis 168.
What all share (assay): ≥ marks a high value that may be exact or a test limit, other limits are often not marked, values filed in µg/mL are converted to µM
For test [1], the system named is Escherichia coli ATCC 25922.
For test [2], the system named is Pseudomonas aeruginosa ATCC 27853.
The test system of test [3] is Staphylococcus aureus ATCC 25923.
Test [4] deals with Enterococcus faecalis ATCC 29212.
In test [5] the test system is Acinetobacter baumannii ATCC 19606.
Test [6] has as its system Staphylococcus epidermidis ATCC 12228.
Test [7] concerns Bacillus subtilis ATCC 23857.
Test [8] deals with Klebsiella pneumoniae ATCC 700603.
Test [9] relates to Staphylococcus aureus ATCC 2592.
Test [10] relates to Bacillus subtilis ATCC 6633.
Test [11] has as its system Candida albicans ATCC 2002.
Test [12] concerns Pseudomonas aeruginosa ATCC 9027.

In brackets after ≈: the same amount, converted by molar mass.

A word on the MIC: it is the least concentration at which growth counts as inhibited.

Take `C[C@@H](O)[C@H](NC(=O)[C@H](CCCCN)NC(=O)[C@H](Cc1c[nH]c2ccccc12)NC(=O)[C@H](CCCN=C(N)N)NC(=O)[C@H](CCCCN)NC(=O)[C@H](Cc1ccccc1)NC(=O)[C@H](Cc1ccccc1)NC(=O)CN)C(=O)N[C@@H](Cc1ccccc1)C(=O)N[C@@H](Cc1ccccc1)C(N)=O` [GFFKRWKTFF]: the MIC in [1] turned out to be 16 µM (≈ 21.8 µg/mL); in test [2], 8 µM (≈ 10.9 µg/mL); in test [3] it was 16 µM (≈ 21.8 µg/mL); in test [4], 64 µM (≈ 87.2 µg/mL); in test [5], 64 µM (≈ 87.2 µg/mL); in [6], 4 µM (≈ 5.45 µg/mL). Besides, the MIC worked out at 16 µM (≈ 21.8 µg/mL) in test [7] and 32 µM (≈ 43.6 µg/mL) in test [8].
Turning to `CC[C@H](C)[C@H](NC(=O)CN)C(=O)N[C@H](C(=O)N[C@@H](C)C(=O)NCC(=O)N[C@H](C(=O)N[C@H](C(=O)N[C@H](C(=O)N[C@@H](CCCCN)C(=O)N[C@@H](C)C(=O)N[C@@H](CCCCN)C(=O)N[C@@H](CCCCN)C(N)=O)[C@@H](C)CC)[C@@H](C)CC)[C@@H](C)CC)[C@@H](C)CC` [GIIAGIIIKAKK], the MIC in [1] is 128 µM (≈ 157 µg/mL); in test [7], ≥ 64 µM.
On to `CC[C@H](C)[C@H](NC(=O)CN)C(=O)N[C@@H](CC(C)C)C(=O)N[C@@H](CC(=O)O)C(=O)N[C@@H](C)C(=O)N[C@H](C(=O)N[C@@H](CCCCN)C(=O)N[C@@H](C)C(=O)N[C@@H](Cc1ccccc1)C(=O)N[C@@H](C)C(=O)N[C@@H](CC(N)=O)C(=O)N[C@@H](C)C(=O)N[C@@H](CC(C)C)C(=O)NCC(N)=O)[C@@H](C)CC` [GILDAIKAFANALG], for which the MIC is 32 µM (≈ 44 µg/mL) in test [1]; 2 µM (≈ 2.75 µg/mL) in the test on Shigella dysenteriae; 4 µM (≈ 5.5 µg/mL) against Pseudomonas aeruginosa; 4 µM (≈ 5.5 µg/mL) in [9]; 4 µM (≈ 5.5 µg/mL) in [10]; 8.01 µM (≈ 11 µg/mL) with Bacillus cereus. In addition, the MIC in [11] is ≥ 48 µM.
For `CC[C@H](C)[C@H](NC(=O)CNC(=O)[C@H](CO)NC(=O)[C@H](CC(C)C)NC(=O)[C@H](CC(C)C)NC(=O)CN)C(=O)N[C@@H](CC(C)C)C(=O)NCC(=O)N[C@@H](C)C(=O)NCC(=O)N[C@@H](CCCCN)C(=O)N[C@@H](Cc1cnc[nH]1)C(=O)N[C@H](C(=O)N[C@H](C(=O)N[C@H]1CSSC[C@@H](C(=O)N[C@@H](C)C(=O)N[C@@H](CCCCN)C(=O)N[C@@H](C)C(=O)O)NC(=O)CNC(=O)[C@H]([C@@H](C)O)NC(=O)[C@H](CC(C)C)NC(=O)CNC1=O)C(C)C)[C@@H](C)CC` [GLLSGILGAGKHIVCGLTGCAKA], the MIC in test [1] was > 46.7 µM; with Shigella dysenteriae, 17.5 µM (≈ 37.5 µg/mL); in test [9], 4.38 µM (≈ 9.37 µg/mL); in [11], 8.76 µM (≈ 18.7 µg/mL).
As for `CC[C@H](C)[C@H](NC(=O)[C@H](CC(C)C)NC(=O)[C@H](Cc1cnc[nH]1)NC(=O)CNC(=O)[C@H](CC(C)C)NC(=O)[C@@H](NC(=O)[C@H](CCCCN)NC(=O)[C@@H]1CCCN1C(=O)[C@H](Cc1c[nH]c2ccccc12)NC(=O)[C@H](CCSC)NC(=O)CN)[C@@H](C)CC)C(=O)N[C@@H](CCCN=C(N)N)C(N)=O` [GMWPKILGHLIR], the MIC is > 100 µM in the test on Pseudomonas aeruginosa, ≥ 33.3 µM against Escherichia coli B, 75 µM (≈ 106 µg/mL) with Staphylococcus aureus and 3 µM (≈ 4.26 µg/mL) in the test with Bacillus subtilis 168.
As for `CC[C@H](C)[C@H](NC(=O)[C@H](CCCCN)NC(=O)[C@H](CCCCN)NC(=O)[C@H](C)NC(=O)[C@@H](NC(=O)[C@H](C)NC(=O)[C@H](C)NC(=O)[C@H](CC(C)C)NC(=O)[C@H](C)NC(=O)[C@H](CCCCN)NC(=O)[C@H](CC(C)C)NC(=O)[C@H](CC(N)=O)NC(=O)CN)C(C)C)C(=O)N[C@@H](CC(C)C)C(N)=O` [GNLKALAAVAKKIL], the minimal inhibitory concentration (MIC) is 64 µM (≈ 90.2 µg/mL) in test [1]; > 128 µM in test [3]; 64 µM (≈ 90.2 µg/mL) in test [12]; 8 µM (≈ 11.3 µg/mL) in test [7]; 128 µM (≈ 180 µg/mL) in [8].
As for `CC(C)C[C@H](NC(=O)[C@H](CCC(N)=O)NC(=O)[C@H](CCCCN)NC(=O)[C@H](Cc1ccc(O)cc1)NC(=O)[C@@H]1CCCN1C(=O)[C@H](CCC(N)=O)NC(=O)[C@H](C)NC(=O)[C@H](CO)NC(=O)CN)C(=O)N[C@@H](Cc1cnc[nH]1)C(=O)N[C@@H](CCCCN)C(=O)N[C@H](C(=O)N[C@H](C(=O)N[C@@H](CC(N)=O)C(=O)N[C@@H](Cc1c[nH]c2ccccc12)C(=O)N[C@@H](CC(=O)O)C(=O)N1CCC[C@H]1C(=O)N[C@@H](Cc1ccc(O)cc1)C(=O)NCC(=O)O)C(C)C)C(C)C` [GSAQPYKQLHKVVNWDPYG], the MIC is > 45.7 µM in test [1], 27.4 µM (≈ 60 µg/mL) in the test with Shigella dysenteriae, 6.86 µM (≈ 15 µg/mL) in test [9] and 13.7 µM (≈ 30 µg/mL) in test [11].
Consider `CC[C@H](C)[C@H](NC(=O)[C@H](Cc1cnc[nH]1)NC(=O)[C@H](CCCCN)NC(=O)[C@H](CC(C)C)NC(=O)[C@H](CC(C)C)NC(=O)[C@H](CO)NC(=O)[C@H](CCSC)NC(=O)[C@H](Cc1c[nH]c2ccccc12)NC(=O)[C@H](CCCCN)NC(=O)[C@@H](N)Cc1cnc[nH]1)C(=O)N[C@@H](CC(C)C)C(=O)N[C@@H](CCCCN)C(N)=O` [HKWMSLLKHILK], for which the MIC was 100 µM (≈ 153 µg/mL) with Pseudomonas aeruginosa, 3.5 µM (≈ 5.37 µg/mL) against Escherichia coli B, 38.3 µM (≈ 58.7 µg/mL) in the test with Staphylococcus aureus and 1.5 µM (≈ 2.3 µg/mL) against Bacillus subtilis 168.
With `CC[C@H](C)[C@H](NC(=O)[C@H](CCCCN)NC(=O)[C@H](CCCCN)NC(=O)[C@H](C)NC(=O)[C@@H](NC(=O)[C@H](C)NC(=O)[C@H](CC(C)C)NC(=O)[C@H](CC(C)C)NC(=O)[C@H](C)NC(=O)[C@H](CCCCN)NC(=O)[C@H](CC(C)C)NC(=O)[C@H](CC(N)=O)NC(=O)[C@@H](N)CCCCN)C(C)C)C(=O)N[C@@H](CC(C)C)C(N)=O` [KNLKALLAVAKKIL], the MIC came out at 8 µM (≈ 12.2 µg/mL) in test [1]; 64 µM (≈ 97.4 µg/mL) in test [3]; 8 µM (≈ 12.2 µg/mL) in test [12]; 8 µM (≈ 12.2 µg/mL) in [7]; 16 µM (≈ 24.4 µg/mL) in [8].
With `CC[C@H](C)[C@H](NC(=O)[C@H](CCCCN)NC(=O)[C@H](CCCCN)NC(=O)[C@H](C)NC(=O)[C@@H](NC(=O)[C@H](C)NC(=O)CNC(=O)[C@H](CC(C)C)NC(=O)[C@H](C)NC(=O)[C@H](CCCCN)NC(=O)[C@H](CC(C)C)NC(=O)[C@H](CC(N)=O)NC(=O)[C@@H](N)CC(C)C)C(C)C)C(=O)N[C@@H](CC(C)C)C(N)=O` [LNLKALGAVAKKIL], the MIC is 32 µM (≈ 46.4 µg/mL) in [1]; 128 µM (≈ 186 µg/mL) in [3]; 32 µM (≈ 46.4 µg/mL) in test [12]; ≥ 32 µM in test [7]; 64 µM (≈ 92.9 µg/mL) in [8].
Turning to `CSCC[C@H](NC(=O)[C@H](Cc1cnc[nH]1)NC(=O)[C@H](C)NC(=O)[C@H](CCSC)NC(=O)[C@@H](NC(=O)[C@H](CCCCN)NC(=O)[C@@H]1CCCN1C(=O)[C@@H](N)CC(C)C)C(C)C)C(=O)N[C@@H](CCCCN)C(N)=O` [LPKVMAHMK], the minimal inhibitory concentration (MIC) was 100 µM (≈ 105 µg/mL) with Pseudomonas aeruginosa, ≥ 100 µM with Escherichia coli B, 100 µM (≈ 105 µg/mL) in the test on Staphylococcus aureus and ≥ 100 µM in the test on Bacillus subtilis 168.
As for `CSCC[C@H](NC(=O)[C@H](Cc1cnc[nH]1)NC(=O)[C@H](C)NC(=O)[C@H](CCSC)NC(=O)[C@@H](NC(=O)[C@H](CCCCN)NC(=O)[C@@H]1CCCN1)C(C)C)C(=O)N[C@@H](CCCCN)C(N)=O` [PKVMAHMK], the MIC in the test with Escherichia coli B and in the test with Bacillus subtilis 168 was ≥ 100 µM in each case.
For the compound `CC[C@H](C)[C@H](NC(=O)[C@H](CCCCN)NC(=O)[C@H](CCCCN)NC(=O)[C@H](Cc1c[nH]c2ccccc12)NC(=O)[C@H](CC(N)=O)NC(=O)[C@@H](N)C(C)C)C(=O)N[C@@H](CC(C)C)C(=O)NCC(=O)N[C@@H](CCCCN)C(=O)N[C@H](C(=O)N[C@H](C(=O)N[C@@H](CCCCN)C(=O)N[C@H](C(=O)N[C@H](C(=O)N[C@@H](CCCCN)C(=O)O)C(C)C)C(C)C)[C@@H](C)CC)[C@@H](C)CC` [VNWKKILGKIIKVVK], the MIC came out at 40 µM (≈ 70.7 µg/mL) in the test with Pseudomonas aeruginosa, 3.5 µM (≈ 6.18 µg/mL) in the test with Escherichia coli B, 40 µM (≈ 70.7 µg/mL) against Staphylococcus aureus and 1.2 µM (≈ 2.12 µg/mL) against Bacillus subtilis 168.
As for `CC[C@H](C)[C@H](NC(=O)[C@H](CCCCN)NC(=O)[C@H](CCCCN)NC(=O)[C@H](Cc1c[nH]c2ccccc12)NC(=O)[C@H](CC(N)=O)NC(=O)[C@@H](N)C(C)C)C(=O)N[C@@H](CC(C)C)C(=O)N[C@@H](CCCCN)C(=O)N[C@@H](CCCCN)C(=O)N[C@H](C(=O)N[C@H](C(=O)N[C@@H](CCCCN)C(=O)N[C@H](C(=O)N[C@@H](C)C(=O)N[C@@H](CCCCN)C(N)=O)C(C)C)[C@@H](C)CC)[C@@H](C)CC` [VNWKKILKKIIKVAK], the minimal inhibitory concentration (MIC) in the test on Pseudomonas aeruginosa amounted to 26.1 µM (≈ 47.2 µg/mL); against Escherichia coli B it was 0.7 µM (≈ 1.27 µg/mL); against Staphylococcus aureus, 15.6 µM (≈ 28.2 µg/mL); against Bacillus subtilis 168, 0.7 µM (≈ 1.27 µg/mL).
